{"source": "paper PMC9652263", "about": "(Investigational New Drugs, 2022)", "key": {"[1]": {"tested_on": "patients with advanced solid tumors", "test": "Dose escalation and dose-limiting toxicities (phase I, 3+3 design)", "settings": "combination q3wk; paclitaxel on D1 and D8, lurbinectedin on D1", "experimental": "Furthermore, during dose escalation lurbinectedin was converted to a body surface area (BSA)-based dose.\nThe DL5 cohort was then expanded, converting lurbinectedin to a BSA-based dose of 2.2 mg/m^2 (calculated by dividing 4.0 mg FD by a BSA of 1.8 m^2).\nPatient accrual began in Group A, with dose escalation following a standard 3+3 design. […] During dose escalation in Group A, lurbinectedin was converted to a body surface area (BSA)-based dose (calculated by dividing the allocated FD by a BSA of 1.8 m^2)."}, "[2]": {"tested_on": "patients with advanced solid tumors", "settings": "cited from earlier work"}, "[3]": {"tested_on": "SCLC, breast, ovarian, endometrial cancer, NSCLC", "settings": "cited from earlier work"}, "[4]": {"settings": "for HL, Mean: transformed into the natural logarithm", "experimental": "(§1) Blood and plasma concentration–time profiles were analyzed by standard non-compartmental methods. Individual PK parameters were tabulated and summarized.\n(§2) Both drugs were measured by validated liquid extraction methods followed by ultra-performance liquid chromatography tandem mass-spectrometry detection (Dynakin, Derio, Spain)."}, "clinical": {"test": "clinical", "settings": "human, in vivo", "experimental": "as §1, §2"}, "patients": {"tested_on": "patients", "settings": "single-agent weekly paclitaxel; cited from earlier work"}, "[5]": {"settings": "Cycle 1, DL1: paclitaxel 60 / lurbinectedin 3.0 mg FD, mean (SD)"}, "[6]": {"settings": "Cycle 1, DL2: paclitaxel 60 / lurbinectedin 4.0 mg FD, mean (SD)"}, "[7]": {"settings": "Cycle 1, DL3: paclitaxel 60 / lurbinectedin 5.0 mg FD, mean (SD)"}, "[8]": {"settings": "Cycle 1, DL4 (MTD): paclitaxel 80 / lurbinectedin 5.0 mg FD, mean (SD)"}, "[9]": {"settings": "Cycle 1, DL5 (RD): paclitaxel 80 / lurbinectedin 2.2 mg/m^2, mean (SD)"}, "[10]": {"settings": "Cycle 1, DL5 (RD): paclitaxel 80 / lurbinectedin 4.0 mg FD, mean (SD)"}, "[11]": {"settings": "Cycle 1, RD + BEV 80 / 2.2 / 15, mean (SD)"}}, "note": "Values joined by “and” are separate entries in the source; they are usually repeats but may differ in a detail not shown here. Equal entries are not always repeated. Where two headings read alike, the source gives them in different places.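 For AUC in this document: blood and plasma drug levels in patients quantified by UPLC tandem mass spectrometry, with PK parameters derived by non-compartmental analysis of concentration–time profiles.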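 For CL in this document: blood and plasma drug levels in patients quantified by UPLC tandem mass spectrometry, with PK parameters derived by non-compartmental analysis of concentration–time profiles.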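 For Cmax in this document: blood and plasma drug levels in patients quantified by UPLC tandem mass spectrometry, with PK parameters derived by non-compartmental analysis of concentration–time profiles.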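 For HL (terminal half-life) in this document: blood and plasma drug levels in patients quantified by UPLC tandem mass spectrometry, with PK parameters derived by non-compartmental analysis of concentration–time profiles.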", "data": [{"compound": "COc1ccc2[nH]c3c(c2c1)CCN[C@]31CS[C@@H]2c3c(OC(C)=O)c(C)c4c(c3[C@H](COC1=O)N1[C@@H]2[C@H]2c3c(cc(C)c(OC)c3O)C[C@@H]([C@@H]1O)N2C)OCO4", "note": "[Lurbinectedin]", "values": [{"measurement": "recommended dose (RD)", "setting": "[1]", "result": 2.2, "unit": "mg/m^2"}, {"measurement": "recommended dose (RD), single-agent", "setting": "[2]; 1-h i.v. infusion q3wk", "result": "7.0 mg flat dose (FD) and 7 mg flat dose (FD)"}, {"measurement": "median half-life", "setting": "[2]; single agent at the RD (7 mg FD)", "result": 70.6, "unit": "h"}, {"measurement": "response rate", "setting": "[3]; monotherapy, BRCA-unselected breast cancer", "result": 9, "unit": "%"}, {"measurement": "response rate", "setting": "[3]; monotherapy, ovarian cancer", "result": "14–23%"}, {"measurement": "response rate", "setting": "[3]; monotherapy, second-line treatment of patients with SCLC", "result": 35, "unit": "%"}, {"measurement": "AUC", "setting": "[4]; Cycle 1, DL1: paclitaxel 60 mg/m^2 D1,D8,D15 / lurbinectedin 3.0 mg FD, mean (SD)", "result": "405.9 (129.6) h* μg/L"}, {"measurement": "CL", "setting": "[4]; [5]", "result": "7.8 (2.2) L/h"}, {"measurement": "Cmax", "setting": "[4]; [5]", "result": "97.7 (45.5) μg/L"}, {"measurement": "HL (terminal half-life)", "setting": "[4]; [5]", "result": "52.8 (3.7) h"}, {"measurement": "Vss", "setting": "[4]; [5]", "result": "299.4 (84.4) L"}, {"measurement": "Vz", "setting": "[4]; [5]", "result": "602.1 (193.0) L"}, {"measurement": "AUC", "setting": "[4]; Cycle 1, DL2: paclitaxel 60 mg/m^2 D1,D8,D15 / lurbinectedin 4.0 mg FD, mean (SD)", "result": "357.9 (174.2) h* μg/L"}, {"measurement": "CL", "setting": "[4]; [6]", "result": "14.2 (9.4) L/h"}, {"measurement": "Cmax", "setting": "[4]; [6]", "result": "74.0 (18.9) μg/L"}, {"measurement": "HL (terminal half-life)", "setting": "[4]; [6]", "result": "82.1 (65.7) h"}, {"measurement": "Vss", "setting": "[4]; [6]", "result": "733.7 (415.1) L"}, {"measurement": "Vz", "setting": "[4]; [6]", "result": "1161 (563.2) L"}, {"measurement": "AUC", "setting": "[4]; Cycle 1, DL3: paclitaxel 60 mg/m^2 D1,D8,D15 / lurbinectedin 5.0 mg FD, mean (SD)", "result": "714.0 (416.3) h* μg/L"}, {"measurement": "CL", "setting": "[4]; [7]", "result": "8.8 (4.0) L/h"}, {"measurement": "Cmax", "setting": "[4]; [7]", "result": "127.0 (74.0) μg/L"}, {"measurement": "HL (terminal half-life)", "setting": "[4]; [7]", "result": "46.6 (15.5) h"}, {"measurement": "Vss", "setting": "[4]; [7]", "result": "343.2 (150.1) L"}, {"measurement": "Vz", "setting": "[4]; [7]", "result": "530.8 (164.6) L"}, {"measurement": "AUC", "setting": "[4]; Cycle 1, DL4 (MTD): paclitaxel 80 mg/m^2 D1,D8 / lurbinectedin 5.0 mg FD, mean (SD)", "result": "376.2 (151.4) h* μg/L"}, {"measurement": "CL", "setting": "[4]; [8]", "result": "15.2 (6.0) L/h"}, {"measurement": "Cmax", "setting": "[4]; [8]", "result": "109.5 (28.4) μg/L"}, {"measurement": "HL (terminal half-life)", "setting": "[4]; [8]", "result": "38.6 (8.3) h"}, {"measurement": "Vss", "setting": "[4]; [8]", "result": "401.8 (99.1) L"}, {"measurement": "Vz", "setting": "[4]; [8]", "result": "806.0 (243.4) L"}, {"measurement": "AUC", "setting": "[4]; Cycle 1, DL5 (RD): paclitaxel 80 mg/m^2 D1,D8 / lurbinectedin 2.2 mg/m^2, mean (SD)", "result": "440.5 (224.4) h* μg/L"}, {"measurement": "AUC", "setting": "[4]; Cycle 1, DL5 (RD): paclitaxel 80 mg/m^2 D1,D8 / lurbinectedin 4.0 mg FD, mean (SD)", "result": "436.2 (238.3) h* μg/L"}, {"measurement": "CL", "setting": "[4]; [9]", "result": "11.1 (5.3) L/h"}, {"measurement": "Cmax", "setting": "[4]; [9]", "result": "96.3 (34.7) μg/L"}, {"measurement": "HL (terminal half-life)", "setting": "[4]; [9]", "result": "49.3 (22.5) h"}, {"measurement": "Vss", "setting": "[4]; [9]", "result": "454.9 (222.6) L"}, {"measurement": "Vz", "setting": "[4]; [9]", "result": "727.6 (346.9) L"}, {"measurement": "CL", "setting": "[4]; [10]", "result": "12.0 (7.0) L/h"}, {"measurement": "Cmax", "setting": "[4]; [10]", "result": "83.9 (42.5) μg/L"}, {"measurement": "HL (terminal half-life)", "setting": "[4]; [10]", "result": "47.1 (23.0) h"}, {"measurement": "Vss", "setting": "[4]; [10]", "result": "420.9 (182.7) L"}, {"measurement": "Vz", "setting": "[4]; [10]", "result": "701.8 (268.9) L"}, {"measurement": "CL", "setting": "[4]; [11]", "result": "13.8 (6.5) L/h"}, {"measurement": "Cmax", "setting": "[4]; [11]", "result": "88.7 (28.9) μg/L"}, {"measurement": "HL (terminal half-life)", "setting": "[4]; [11]", "result": "40.0 (15.7) h"}, {"measurement": "Vss", "setting": "[4]; [11]", "result": "408.5 (161.7) L"}, {"measurement": "Vz", "setting": "[4]; [11]", "result": "724.9 (340.5) L"}, {"measurement": "AUC", "setting": "[4]; Cycle 1, RD + BEV: paclitaxel 80 mg/m^2 / lurbinectedin 2.2 mg/m^2 / BEV 15 mg/kg, mean (SD)", "result": "351.2 (175.9) h* μg/L"}, {"measurement": "differences in PK parameters in the presence or absence of BEV", "setting": "[4]; RD in Group A vs Group B, Cycle 1", "result": "No statistically significant differences"}, {"measurement": "variability of total clearance (CL)", "setting": "[4]; all dose levels", "result": "Wide variability"}, {"measurement": "dose linearity of maximum concentration (Cmax) and AUC", "setting": "[4]; dose levels 3.0–5.0 mg FD in combination with paclitaxel", "result": "No dose linearity could be established"}, {"measurement": "potential drug-drug interaction: CL of each drug at the high AUC of the other drug", "setting": "[4]; paclitaxel with lurbinectedin", "result": "slight decrease"}, {"measurement": "HL, Mean", "setting": "[4]; Cycle 1, Group A at the RD (31 patients)", "result": 3.802}, {"measurement": "HL, Mean", "setting": "[4]; Cycle 1, Group B with BEV (12 patients)", "result": 3.603}]}, {"compound": "CC(=O)O[C@H]1C(=O)[C@@]2(C)[C@H]([C@H](OC(=O)c3ccccc3)[C@]3(O)C[C@H](OC(=O)[C@H](O)[C@@H](NC(=O)c4ccccc4)c4ccccc4)C(C)=C1C3(C)C)[C@]1(OC(C)=O)CO[C@@H]1C[C@@H]2O", "note": "[Paclitaxel]", "values": [{"measurement": "clearance", "setting": "clinical; 2.2 mg/m2, CL", "result": 525, "unit": "mL/min"}, {"measurement": "Vd", "setting": "clinical; 2.2 mg/m2, Vss", "result": 324, "unit": "L"}, {"measurement": "Vd", "setting": "clinical; 2.2 mg/m2, Vz", "result": 662, "unit": "L"}, {"measurement": "clearance", "setting": "clinical; 3 mg, CL", "result": 437, "unit": "mL/min"}, {"measurement": "Cmax", "setting": "clinical; 3 mg", "result": 2370, "unit": "ng/mL"}, {"measurement": "Vd", "setting": "clinical; 3 mg, Vss", "result": 315, "unit": "L"}, {"measurement": "Vd", "setting": "clinical; 3 mg, Vz", "result": 689, "unit": "L"}, {"measurement": "half-life", "setting": "clinical; 4 mg", "result": 29.2, "unit": "h"}, {"measurement": "clearance", "setting": "clinical; 4 mg, CL", "result": 487, "unit": "mL/min"}, {"measurement": "Cmax", "setting": "clinical; 4 mg", "result": 1500, "unit": "ng/mL"}, {"measurement": "Vd", "setting": "clinical; 4 mg, Vss", "result": 577, "unit": "L"}, {"measurement": "Vd", "setting": "clinical; 4 mg, Vz", "result": 934, "unit": "L"}, {"measurement": "clearance", "setting": "clinical; 5 mg, CL", "result": 575, "unit": "mL/min"}, {"measurement": "Cmax", "setting": "clinical; 5 mg", "result": 1980, "unit": "ng/mL"}, {"measurement": "Vd", "setting": "clinical; 5 mg, Vss", "result": 430, "unit": "L"}, {"measurement": "Vd", "setting": "clinical; 5 mg, Vz", "result": 858, "unit": "L"}, {"measurement": "incidence of peripheral neuropathy, grade 3/4", "setting": "patients", "result": "3–21%"}, {"measurement": "response rate", "setting": "[3]; single-agent weekly 80 mg/m^2/week, metastatic breast cancer", "result": "22–42%"}, {"measurement": "response rate", "setting": "[3]; single-agent weekly 80 mg/m^2/week, relapsed ovarian cancer", "result": "21–60%"}, {"measurement": "response rate", "setting": "[3]; single-agent weekly 80 mg/m^2/week, relapsed/refractory SCLC", "result": "20–27%"}, {"measurement": "potential drug-drug interaction: CL of each drug at the high AUC of the other drug", "setting": "[4]; human, in vivo", "result": "slight decrease"}, {"measurement": "variability of total clearance (CL)", "setting": "[4]; human, in vivo", "result": "Wide variability"}, {"measurement": "Cmax", "setting": "[4]; human, in vivo, 2.2 mg/m2", "result": "3004 (971.4) μg/L"}, {"measurement": "CL", "setting": "[4]; human, in vivo, 4 mg", "result": "31.1 (6.2) L/h"}, {"measurement": "Cmax", "setting": "[4]; human, in vivo, 4 mg", "result": "2908 (482.2) μg/L"}, {"measurement": "Vss", "setting": "[4]; human, in vivo, 4 mg", "result": "315.3 (89.7) L"}, {"measurement": "Vz", "setting": "[4]; human, in vivo, 4 mg", "result": "639.9 (128.6) L"}, {"measurement": "CL", "setting": "[4]; human, in vivo, 5 mg", "result": "30.2 (8.6) L/h"}, {"measurement": "Cmax", "setting": "[4]; human, in vivo, 5 mg", "result": "3122 (1420) μg/L"}, {"measurement": "Vss", "setting": "[4]; human, in vivo, 5 mg", "result": "323.2 (266.8) L"}, {"measurement": "Vz", "setting": "[4]; human, in vivo, 5 mg", "result": "627.5 (185.2) L"}]}, {"compound": "Bevacizumab", "values": [{"measurement": "improvement in ORR with the addition of BEV to chemotherapy vs. chemotherapy alone", "setting": "[3]; recurrent ovarian cancer and previously untreated NSCLC", "result": "15–20%"}]}]}
